From patent publication US10221177B2 (HYDRA BIOSCIENCES, INC., priority 2014, dated 2019) come the findings set out here.

As usually defined, the IC50 is the concentration that gives 50% inhibition.

Assay [1] has as its system CFA-induced cold hypersensitivity of the hind paw. The experiment in a line: CFA-induced pain test, cold hypersensitivity (cold plate paw withdrawal latency). It is filed as in vivo. Conditions: cold plate 1° C.; for Average PWL Post-Treatment / PWL Change: 1-2 hour pre-treatment; for Average PWL Post-CFA: baseline before dosing. As to the method:
Embodiments of the invention may be efficacious in the treatment of inflammatory pain. Compounds of the invention were tested by the CFA-induced pain test method. Compounds were formulated as solutions in water with various solvents and excipients including dimethyl sulfoxide (DMSO), polyethylene glycol (15)-hydroxystearate (Solutol®, Sigma-Aldrich), caprylocaproyl macrogol-8 glyceride (Labrasol®, Sigma-Aldrich), polysorbate-80 (Tween®-80, Sigma-Aldrich), and polyoxyl 35 castor oil (Cremophor® EL, BASF Corp.); or suspensions in methylcellulose as indicated in Table 3 for oral delivery. Briefly, the hind paw was sensitized to cold temperature (allodynic) by administering 0.1 mL of Complete Freund's Adjuvant (CFA) to the right hind paw. Three days later, the time taken for the animal to lift its CFA-injected paw was recorded compared to its un-injected normal left hind paw. […] To avoid tissue damage the maximum cut-off time was 5 minutes. Animals that were allodynic (average PWL to the first three pain behaviors <150 seconds for the CFA-injected hind paw: ˜≥50% difference between the normal and CFA-injected paw) were included in the study and subsequently randomized across treatment groups. The following day, the animals were dosed orally under blinded conditions. Following the 1-2 hour pre-treatment time, the post-dose PWL readings were again taken. The efficacy of the drug treatment was assessed by comparing the PWL in the drug treatment animals to those animals that receive the vehicle. P values, when indicated, indicate significance compared Vehicle.

Assay [2] deals with formalin-induced pain behaviors in the rat. The experiment in a line: Formalin-induced pain test (formalin model), duration of pain behaviors. It is filed as in vivo. As to the method: Exemplary compounds of the invention were tested in the formalin-induced pain test reported by Dubuisson et al., Pain 1977 December; 4(2):161-74 (incorporated herein by reference in its entirety). Briefly, dilute formalin (50 μL of 3% formalin) was injected into the plantar surface of the hind paw of a rat. […] The individual responsible for counting the pain behaviors in a particular study was blinded to the treatment groups.
The initial phase (Phase I: 0-5 min) is thought to have a significant component that is dependent upon direct activation of afferent fibers by formalin and functional TRPA1 (McNamara et al., 2007).
Investigators studied oral administration of compounds of the invention at the doses presented in Table 3 on pain behaviors in the formalin model in the rat. Compounds were formulated as solutions in water with various solvents and excipients including dimethyl sulfoxide (DMSO), polyethylene glycol (15)-hydroxystearate (Solutol®, Sigma-Aldrich), caprylocaproyl macrogol-8 glyceride (Labrasol®, Sigma-Aldrich), polysorbate-80 (Tween®-80, Sigma-Aldrich), and polyoxyl 35 castor oil (Cremophor® EL, BASF Corp.); or suspensions in methylcellulose as indicated in Table 3. Animals were dosed orally with the vehicle, or compounds of the invention one hour prior to intraplantar formalin. […] A decrease over Vehicle indicates a positive result. P values, when indicated, indicate significance compared Vehicle.

For the next assay, the target named is human TRPA1 (Homo sapiens (Human), UniProt O75762). The experiment in a line: In vitro inhibition of human TRPA1, whole cell patch configuration. It is filed as cell-based. The settings on record: current activation 10 μM AITC, tested concentrations 320 pM to 3.2 μM, read-out: hTRPA1 IC50. The method in brief: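 Whole-cell patch clamp, bath 150 mM NaCl, 10 mM HEPES, 1 mM EGTA, 3 mM MgCl2, pH 7.4 (sometimes 2 mM CaCl2, 1 mM MgCl2). Currents recorded continuously at −60 mV or by 400 ms ramps from −40 mV holding every 4 s; inward/outward currents taken at −80/80 mV, with controlled-temperature focal perfusion.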

Where [3] appears, read: 0.3 mg/kg PO, solution in 4% DMSO, 5% Tween-80, 20% Cremophor EL, and 71% water.
Setting [4] is: 1 mg/kg PO, solution in 4% DMSO, 5% Tween-80, 20% Cremophor EL, and 71% water.
Where [5] appears, read: 3 mg/kg PO, solution in 4% DMSO, 5% Tween-80, 20% Cremophor EL, and 71% water.
Where [6] appears, read: group 0.3 mg/kg PO, solution in 4% DMSO, 5% Tween-80, 20% Cremophor EL, and 71% water.
Setting [7] is: group 1 mg/kg PO, solution in 4% DMSO, 5% Tween-80, 20% Cremophor EL, and 71% water.
The mark [8] stands for this setting: group 3 mg/kg PO, solution in 4% DMSO, 5% Tween-80, 20% Cremophor EL, and 71% water.
Setting [9] is: 1 mg/kg PO one hour prior to formalin, solution in 4% DMSO, 5% Tween-80, 20% Cremophor EL, 71% water.
The mark [10] stands for this setting: 3 mg/kg PO one hour prior to formalin, solution in 4% DMSO, 5% Tween-80, 20% Cremophor EL, 71% water.
[11] abbreviates: 10 mg/kg PO one hour prior to formalin, solution in 4% DMSO, 5% Tween-80, 20% Cremophor EL, 71% water.
The mark [12] stands for this setting: 1 mg/kg PO, suspension in 0.5% methylcellulose.
The mark [13] stands for this setting: 3 mg/kg PO, suspension in 0.5% methylcellulose.
The mark [14] stands for this setting: 10 mg/kg PO, suspension in 0.5% methylcellulose.
Setting [15] is: 1 mg/kg PO one hour prior to formalin, suspension in 0.5% methylcellulose.
Where [16] appears, read: 3 mg/kg PO one hour prior to formalin, suspension in 0.5% methylcellulose.
Where [17] appears, read: 10 mg/kg PO one hour prior to formalin, suspension in 0.5% methylcellulose.

human TRPA1, sequence (O75762 whole entry, the tested form may be a part): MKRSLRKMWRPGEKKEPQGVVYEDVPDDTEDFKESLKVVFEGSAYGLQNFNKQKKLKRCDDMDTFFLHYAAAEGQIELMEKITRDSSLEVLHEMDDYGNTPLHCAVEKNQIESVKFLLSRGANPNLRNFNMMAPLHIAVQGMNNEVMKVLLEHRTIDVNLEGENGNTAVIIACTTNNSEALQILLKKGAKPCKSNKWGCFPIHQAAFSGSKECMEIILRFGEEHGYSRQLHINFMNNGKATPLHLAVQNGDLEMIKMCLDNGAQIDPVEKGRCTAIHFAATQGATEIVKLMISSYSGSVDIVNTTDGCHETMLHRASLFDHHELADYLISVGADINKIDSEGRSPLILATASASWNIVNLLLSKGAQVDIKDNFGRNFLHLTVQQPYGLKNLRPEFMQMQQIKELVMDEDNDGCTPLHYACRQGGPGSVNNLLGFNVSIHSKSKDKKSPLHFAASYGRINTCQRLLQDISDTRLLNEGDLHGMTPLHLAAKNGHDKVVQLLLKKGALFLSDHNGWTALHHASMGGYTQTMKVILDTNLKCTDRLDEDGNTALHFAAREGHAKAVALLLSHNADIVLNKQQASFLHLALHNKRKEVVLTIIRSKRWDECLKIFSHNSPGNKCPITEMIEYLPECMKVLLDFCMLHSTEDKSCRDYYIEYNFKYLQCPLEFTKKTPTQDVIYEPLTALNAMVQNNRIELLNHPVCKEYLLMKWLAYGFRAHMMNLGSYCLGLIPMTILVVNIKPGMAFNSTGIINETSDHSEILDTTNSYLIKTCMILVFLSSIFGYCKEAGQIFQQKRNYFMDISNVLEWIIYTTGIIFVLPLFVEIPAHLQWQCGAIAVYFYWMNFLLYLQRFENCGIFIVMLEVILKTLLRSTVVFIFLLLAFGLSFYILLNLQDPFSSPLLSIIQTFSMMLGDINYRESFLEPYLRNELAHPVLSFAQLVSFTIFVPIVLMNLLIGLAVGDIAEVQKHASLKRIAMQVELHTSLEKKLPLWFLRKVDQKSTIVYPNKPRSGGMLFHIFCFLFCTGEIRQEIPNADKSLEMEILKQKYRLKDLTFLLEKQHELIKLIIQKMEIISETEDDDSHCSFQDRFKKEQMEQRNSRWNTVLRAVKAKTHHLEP

Take `CC(=O)Cn1c(=O)c2c(ncn2[C@@H](C)C(=O)Nc2cccc(-c3cnc(N4CC5C(C4)C5(F)F)nc3)n2)n(C)c1=O` (stereo partly drawn) [Compound 25, (2S)—N-(6-(2-(6,6-difluoro-3-azabicyclo[3.1.0]hexan-3-yl)pyrimidin-5-yl)pyridin-2-yl)-2-(3-methyl-2,6-dioxo-1-(2-oxopropyl)-2,3-dihydro-1H-purin-7(6H)-yl)propanamide]: the entries for the “Average PWL Post-Treatment” value in assay [1] (setting [3]), in assay [1] (setting [4]) and in assay [1] (setting [5]) were 170.2, 224.8 and 259.9, respectively. The “PWL Change” value in assay [1] (setting [3]) is 65.2 s; in assay [1] (setting [4]), 119.7 s; in assay [1] (setting [5]), 154.9 s. In addition, the “Average PWL Post-CFA” value in assay [1] (setting [6]) is recorded as 105.0; in assay [1] (setting [7]) it was 105.1; in assay [1] (setting [8]) it was 105.1. Further, the “Duration (0-2 Minutes) Average” value in assay [2] (setting [9]) was 87.8 s; in assay [2] (setting [10]), 22.8 s; in assay [2] (setting [11]) it was 29.1 s. The “Duration (0-5 Minutes) Average” value stood at 190.1 s in assay [2] (setting [9]), 98.3 s in assay [2] (setting [10]) and 146.0 s in assay [2] (setting [11]). Besides, on human TRPA1, the IC50 was 4 nM.
Take `C[C@@H](C(=O)Nc1csc(-c2cnc(N3CC4CC4C3)nc2)n1)n1cnc2c1c(=O)n(CC#N)c(=O)n2C` (stereo partly drawn) [Compound 34, (2S)—N-(2-(2-(3-azabicyclo[3.1.0]hexan-3-yl)pyrimidin-5-yl)thiazol-4-yl)-2-(1-(cyanomethyl)-3-methyl-2,6-dioxo-2,3-dihydro-1H-purin-7(6H)-yl)propanamide]: the “Average PWL Post-Treatment” value in assay [1] (setting [3]) was 185.6; in assay [1] (setting [4]) it was 205.4; in assay [1] (setting [5]) it was 272.6. The figures for the “PWL Change” value in assay [1] (setting [3]), in assay [1] (setting [4]) and in assay [1] (setting [5]) were 80.7 s, 107.4 s and 169.0 s, respectively. In addition, the “Average PWL Post-CFA” value in assay [1] (setting [6]) is recorded as 104.9; in assay [1] (setting [7]), 98.0; in assay [1] (setting [8]) it was 103.6. Besides, the “Duration (0-2 Minutes) Average” value in assay [2] (setting [11]) is 34.9 s. For the same molecule, the “Duration (0-5 Minutes) Average” value in assay [2] (setting [11]) was found to be 154.6 s. Besides, the IC50 at human TRPA1 is 1 nM.
Consider `CC(=O)Cn1c(=O)c2c(ncn2[C@@H](C)C(=O)Nc2ccnc(-c3cnc(N4CC5C(C4)C5(F)F)nc3)n2)n(C)c1=O` (stereo partly drawn) [Compound 61, (2S)—N-(2′-(6,6-difluoro-3-azabicyclo[3.1.0]hexan-3-yl)-[2,5′-bipyrimidin]-4-yl)-2-(3-methyl-2,6-dioxo-1-(2-oxopropyl)-2,3-dihydro-1H-purin-7(6H)-yl)propanamide], for which the results for the “Average PWL Post-Treatment” value in assay [1] (setting [3]), in assay [1] (setting [4]) and in assay [1] (setting [5]) were 157.1, 235.4 and 278.5, respectively. Further, the “PWL Change” value in assay [1] (setting [3]) came out at 60.9 s; in assay [1] (setting [4]), 139.4 s; in assay [1] (setting [5]), 182.7 s. Besides, the “Average PWL Post-CFA” value in assay [1] (setting [6]) is reported as 96.2; in assay [1] (setting [7]), 96.0; in assay [1] (setting [8]), 95.8. Moreover, the “Duration (0-2 Minutes) Average” value in assay [2] (setting [9]) was determined as 89.4 s; in assay [2] (setting [10]), 90.3 s; in assay [2] (setting [11]) it was 52.8 s. In addition, the results for the “Duration (0-5 Minutes) Average” value in assay [2] (setting [9]), in assay [2] (setting [10]) and in assay [2] (setting [11]) were 149.3 s, 152.3 s and 120.0 s, respectively. The IC50 on human TRPA1 came to 8 nM.
Take `CC(=O)Cn1c(=O)c2c(ncn2[C@@H](C)C(=O)Nc2cncc(-c3cnc(N4CC5C(C4)C5(F)F)nc3)n2)n(C)c1=O` (stereo partly drawn) [Compound 74, (2S)—N-(6-(2-(6,6-difluoro-3-azabicyclo[3.1.0]hexan-3-yl)pyrimidin-5-yl)pyrazin-2-yl)-2-(3-methyl-2,6-dioxo-1-(2-oxopropyl)-2,3-dihydro-1H-purin-7(6H)-yl)propanamide]: the “Average PWL Post-Treatment” value came out at 160.9 in assay [1] (setting [3]), 271.3 in assay [1] (setting [4]) and 273.2 in assay [1] (setting [5]). The “PWL Change” value is listed as 69.9 s in assay [1] (setting [3]), 181.0 s in assay [1] (setting [4]) and 182.3 s in assay [1] (setting [5]). In addition, the “Average PWL Post-CFA” value in assay [1] (setting [6]) was 91.1; in assay [1] (setting [7]), 90.4; in assay [1] (setting [8]), 90.9. The “Duration (0-2 Minutes) Average” value in assay [2] (setting [9]) came out at 94.8 s; in assay [2] (setting [10]), 78.3 s; in assay [2] (setting [11]) it was 62.3 s. Besides, the “Duration (0-5 Minutes) Average” value in assay [2] (setting [9]) amounted to 169.0 s; in assay [2] (setting [10]), 172.9 s; in assay [2] (setting [11]), 152.6 s. For the same molecule, on human TRPA1, the IC50 amounted to 6 nM.
Consider `CC(=O)Cn1c(=O)c2c(ncn2[C@@H](C)C(=O)Nc2csc(-c3ccc(N4CC5C(C4)C5(F)F)nc3)n2)n(C)c1=O` (stereo partly drawn) [Compound 79, (2S)—N-(2-(6-(6,6-difluoro-3-azabicyclo[3.1.0]hexan-3-yl)pyridin-3-yl)thiazol-4-yl)-2-(3-methyl-2,6-dioxo-1-(2-oxopropyl)-2,3-dihydro-1H-purin-7(6H)-yl)propanamide], for which the “Average PWL Post-Treatment” value in assay [1] (setting [12]) came out at 140.2; in assay [1] (setting [13]) it was 201.8; in assay [1] (setting [14]), 231.5. For the same molecule, the “PWL Change” value in assay [1] (setting [12]) came to 38.0 s; in assay [1] (setting [13]), 99.6 s; in assay [1] (setting [14]), 129.3 s. Also, the “Average PWL Post-CFA” value in assay [1] (group 1 mg/kg PO, suspension in 0.5% methylcellulose) came to 102.2; in assay [1] (group 3 mg/kg PO, suspension in 0.5% methylcellulose), 102.2; in assay [1] (group 10 mg/kg PO, suspension in 0.5% methylcellulose) it was 102.3. Besides, the entries for the “Duration (0-2 Minutes) Average” value in assay [2] (setting [15]), in assay [2] (setting [16]) and in assay [2] (setting [17]) were 86.1 s, 86.5 s and 77.3 s, respectively. Moreover, the “Duration (0-5 Minutes) Average” value in assay [2] (setting [15]) was 169.8 s; in assay [2] (setting [16]), 151.1 s; in assay [2] (setting [17]) it was 142.5 s. On human TRPA1, the IC50 came out at 3 nM.
